Measured values taken from patent US5874272A, “Inosine-guanosine kinase” (Kyowa Hakko Kogyo Co., Ltd., priority 1998, dated 1999).

Tests used:
Type in all cases: biochemical
inosine-guanosine kinase [1] = molecular target: T1, inosine-guanosine kinase (Escherichia coli, UniProt P0AEW6); assay: Activation of inosine-guanosine kinase by divalent or trivalent metal ion salts instead of MgSO4; conditions: for activating action on the enzyme (in words): metal ion salt instead of MgSO4, 300 mM KCl; for Produced IMP: 10 mM metal salt instead of MgSO4, 300 mM KCl
T1 construct: made in house; host or cells: Escherichia coli
T1 sequence (P0AEW6 1-434): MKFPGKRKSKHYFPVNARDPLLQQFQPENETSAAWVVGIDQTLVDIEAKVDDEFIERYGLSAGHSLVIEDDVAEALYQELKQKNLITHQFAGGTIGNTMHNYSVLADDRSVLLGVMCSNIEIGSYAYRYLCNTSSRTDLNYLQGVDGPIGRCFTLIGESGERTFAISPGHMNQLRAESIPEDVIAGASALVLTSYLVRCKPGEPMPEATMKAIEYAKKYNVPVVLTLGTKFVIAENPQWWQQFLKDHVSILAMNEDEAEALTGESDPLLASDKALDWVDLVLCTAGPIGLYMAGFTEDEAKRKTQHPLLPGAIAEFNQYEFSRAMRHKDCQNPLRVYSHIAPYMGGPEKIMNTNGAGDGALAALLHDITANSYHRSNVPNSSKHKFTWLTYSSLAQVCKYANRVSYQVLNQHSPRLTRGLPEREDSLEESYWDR
Protocol: (§1) The activity of the inosine-guanosine kinase obtained is determined as follows. A reaction solution (hereafter referred to as reaction solution a) having a composition of 100 mM HEPES buffer (pH 7.2), 10 mM MgSO4, 50 mM KCl, 1 mM ATP and 1 mM inosine is brought into contact with the inosine-guanosine kinase in a concentration of about 10 μg protein/ml followed by reaction at 30° C. for about 30 minutes. During the course of reaction, a part of the reaction solution is subjected to sampling intermittently. After the reaction solution is diluted to 1/20 with 0.2M NaH2 PO4 (adjusted the pH to 2.6 with H3 PO4) to stop the reaction, an amount of 5'-IMP in the stopped reaction solution is quantitatively determined by HPLC. Analysis by HPLC is made by using 0.2M NaH2 PO4 (pH 2.6) at a flow rate of 1 ml/min. as an eluting solution and Asahipak GS-320H (manufactured by Asahi Chemical Co., Ltd.) as a column. Detection of components was made by the absorbance at UV absorbance at 254 nm as an index. Quantitative determination was made by comparing absorbancy with that of the standard.
In the method for determination of inosine-guanosine kinase activity described above, a reaction is carried out by changing the buffer to Tris-hydrochloride buffer (pH 8.0), and varying the concentration of KCl in the composition of reaction solution a. […] Next, activation is examined in the system where the concentration of KCl is changed to 300 mM in the composition of reaction solution a, by adding various divalent or trivalent metal ion salts instead of MgSO4.

inosine-guanosine kinase [2] = molecular target: T1, inosine-guanosine kinase; assay: Effect of added metal salts on inosine-guanosine kinase activity (inhibitor test); conditions: 300 mM KCl; for Relative Activity (%): 1 mM metal salt added to reaction solution a, 30° C., 30 minutes, no metal salt = 100; for inhibition of the enzyme by metal ions (in words): 1 mM metal salt
Protocol: as §1
In the method for determination of inosine-guanosine kinase activity described above, the activity is determined by reacting at 30° C. for 30 minutes except that the concentration of KCl is changed to 300 mM and 1 mM metal salt is added to the composition of reaction solution a. The activity is determined as a standard when no metal salt is added. The enzyme is inhibited by metal ions such as CO^2+, Cu^2+, Zn^2+, etc.

inosine-guanosine kinase [3] = molecular target: T1, inosine-guanosine kinase; assay: Substrate specificity (phosphate-donor / phosphate-acceptor); conditions: for suitability as phosphate-donor (in words): 5 mM phosphate source instead of ATP, 300 mM KCl, 30° C., inosine as acceptor; for suitability as phosphate-acceptor (in words): ATP or dATP as phosphate-donor
Protocol: as §1
In the method for determination of inosine-guanosine kinase activity described above, a reaction is carried out at 30° C. by changing the concentration of KCl to 300 mM in the composition of reaction solution a and adding various neutralized phosphate sources to the reaction solution instead of ATP in a final concentration of 5 mM. […] Where ATP or dATP is used as phosphate-donor, inosine and guanosine are preferred as phosphate-acceptor.
FIG. 1 relates to substrate specificity for inosine-guanosine kinase, wherein the ordinate represents an amount of 5'-IMP produced and the abscissa represents time.

inosine-guanosine kinase [4] = molecular target: T1, inosine-guanosine kinase; assay: K+ (KCl) dependency of inosine-guanosine kinase; conditions: Tris-hydrochloride buffer (pH 8.0); KCl varied, or 100 mM NaCl instead of KCl
Protocol: as §1
In the method for determination of inosine-guanosine kinase activity described above, a reaction is carried out by changing the buffer to Tris-hydrochloride buffer (pH 8.0), and varying the concentration of KCl in the composition of reaction solution a. […]

[Mg+2] [Mg^2+]
activating action on the enzyme (in words) (inosine-guanosine kinase [1]): exhibit an activating action

[Cl][Mn][Cl] [MnCl2]
Relative Activity (%) (inosine-guanosine kinase [2]): 134%
Produced IMP (inosine-guanosine kinase [1]): 0.51 mM

Nc1ncnc2c1ncn2[C@@H]1O[C@H](COP(=O)(O)OP(=O)(O)OP(=O)(O)O)[C@@H](O)[C@H]1O [ATP, adenosine triphosphate]
suitability as phosphate-donor (in words) (inosine-guanosine kinase [3]): good substrate

CC(=O)OP(=O)(O)O [acetylphosphoric acid]
suitability as phosphate-donor (in words) (inosine-guanosine kinase [3]): could not be phosphate-donors

[Cl][Fe]([Cl])[Cl] [FeCl3]
Relative Activity (%) (inosine-guanosine kinase [2]): 131%
Produced IMP (inosine-guanosine kinase [1]): 0 mM

[Ca+2].[Cl-].[Cl-] [CaCl2]
Relative Activity (%) (inosine-guanosine kinase [2]): 107%
Produced IMP (inosine-guanosine kinase [1]): 0 mM

O=S(=O)([O-])[O-].[Mg+2] [MgSO4]
Produced IMP (inosine-guanosine kinase [1]): 0.68 mM

Nc1ccn([C@@H]2O[C@H](COP(=O)(O)O)[C@@H](O)[C@H]2O)c(=O)n1 [5'-CMP, cytidine monophosphate]
suitability as phosphate-donor (in words) (inosine-guanosine kinase [3]): could not be phosphate-donors

[Cu+2] [Cu^2+]
inhibition of the enzyme by metal ions (in words) (inosine-guanosine kinase [2]): inhibited

O=P(O)(O)OP(=O)(O)OP(=O)(O)O [tripolyphosphoric acid]
suitability as phosphate-donor (in words) (inosine-guanosine kinase [3]): could not be phosphate-donors

Nc1nc2c(ncn2[C@@H]2O[C@H](CO)[C@@H](O)[C@H]2O)c(=O)[nH]1 [guanosine]
suitability as phosphate-acceptor (in words) (inosine-guanosine kinase [3]): preferred

[K+] [K^+]
monovalent cation requirement for activation (in words) (inosine-guanosine kinase [4]): requires

[F-].[Na+] [NaF]
Relative Activity (%) (inosine-guanosine kinase [2]): 96%

[Ba+2].[Cl-].[Cl-] [BaCl2]
Relative Activity (%) (inosine-guanosine kinase [2]): 116%
Produced IMP (inosine-guanosine kinase [1]): 0 mM

[Cl-].[Cl-].[Co+2] [CoCl2]
Relative Activity (%) (inosine-guanosine kinase [2]): 32%
Produced IMP (inosine-guanosine kinase [1]): 0.01 mM

[Cl-].[Na+] [NaCl]
Relative Activity (%) (inosine-guanosine kinase [2]): 104%
monovalent cation requirement for activation (in words) (inosine-guanosine kinase [4]): no reaction proceeds

Nc1ncnc2c1ncn2[C@@H]1O[C@H](COP(=O)(O)OP(=O)(O)O)[C@@H](O)[C@H]1O [ADP, adenosine diphosphate]
suitability as phosphate-donor (in words) (inosine-guanosine kinase [3]): could not be phosphate-donors

O=P(O)(O)OP(=O)(O)OP(=O)(O)OP(=O)(O)O [tetrapolyphosphoric acid]
suitability as phosphate-donor (in words) (inosine-guanosine kinase [3]): could not be phosphate-donors

[Cl][Cu][Cl] [CuCl2]
Relative Activity (%) (inosine-guanosine kinase [2]): 1%
Produced IMP (inosine-guanosine kinase [1]): 0 mM

OC[C@H]1O[C@@H](n2cnc3c(O)ncnc32)[C@H](O)[C@@H]1O [inosine]
suitability as phosphate-acceptor (in words) (inosine-guanosine kinase [3]): preferred

O=P(O)(O)O [phosphoric acid]
suitability as phosphate-donor (in words) (inosine-guanosine kinase [3]): could not be phosphate-donors

[Mn+2] [Mn^2+]
activating action on the enzyme (in words) (inosine-guanosine kinase [1]): exhibit an activating action

O=S(=O)([O-])[O-].[Zn+2] [ZnSO4]
Relative Activity (%) (inosine-guanosine kinase [2]): 5%
Produced IMP (inosine-guanosine kinase [1]): 0 mM

[Cl][Fe][Cl] [FeCl2]
Relative Activity (%) (inosine-guanosine kinase [2]): 112%
Produced IMP (inosine-guanosine kinase [1]): 0 mM

Nc1ncnc2c1ncn2[C@@H]1O[C@H](COP(=O)(O)O)[C@@H](O)[C@H]1O [5'-AMP, adenosine monophosphate]
suitability as phosphate-donor (in words) (inosine-guanosine kinase [3]): could not be phosphate-donors

Nc1ncnc2c1ncn2[C@H]1C[C@H](O)[C@@H](COP(=O)(O)OP(=O)(O)OP(=O)(O)O)O1 [dATP, deoxyadenosine triphosphate]
suitability as phosphate-donor (in words) (inosine-guanosine kinase [3]): good substrate

O=S(=O)([O-])[O-].[Mn+2] [MnSO4]
Produced IMP (inosine-guanosine kinase [1]): 0.64 mM

O=C(O)c1cc(=O)[nH]c(=O)n1[C@@H]1O[C@H](COP(=O)(O)O)[C@@H](O)[C@H]1O [5'-OMP, orotic acid monophosphate]
suitability as phosphate-donor (in words) (inosine-guanosine kinase [3]): could not be phosphate-donors

O=c1ccn([C@@H]2O[C@H](COP(=O)(O)OP(=O)(O)OP(=O)(O)O)[C@@H](O)[C@H]2O)c(=O)[nH]1 [UTP, uridine triphosphate]
suitability as phosphate-donor (in words) (inosine-guanosine kinase [3]): the reaction proceeds a little bit

CC(=O)[O-].CC(=O)[O-].[Zn+2] [Zn(CH3 COO)2]
Relative Activity (%) (inosine-guanosine kinase [2]): 5%
Produced IMP (inosine-guanosine kinase [1]): 0 mM

O=P(O)(O)OP(=O)(O)O [pyrophosphoric acid]
suitability as phosphate-donor (in words) (inosine-guanosine kinase [3]): could not be phosphate-donors

[Cl-].[Cl-].[Mg+2] [MgCl2]
Produced IMP (inosine-guanosine kinase [1]): 0.60 mM

[Zn+2] [Zn^2+]
inhibition of the enzyme by metal ions (in words) (inosine-guanosine kinase [2]): inhibited

Nc1nc2c(ncn2[C@@H]2O[C@H](COP(=O)(O)OP(=O)(O)OP(=O)(O)O)[C@@H](O)[C@H]2O)c(=O)[nH]1 [GTP, guanosine triphosphate]
suitability as phosphate-donor (in words) (inosine-guanosine kinase [3]): could not be phosphate-donors

[Co+2] [CO^2+]
inhibition of the enzyme by metal ions (in words) (inosine-guanosine kinase [2]): inhibited
